The text below walks through data of the OligoGym collection.

These antisense oligonucleotides have a phosphorothioate backbone; sugars and methylation of C are not fully specified.
Further: test concentration or dose not given here.

The first data set deals with PTPN6. The conditions noted are these: ASO.
GGGACAGCATCTCTCTGTAG displayed a remaining target (mRNA or protein) (fraction of control) of at least 1.

On to CGCTCACTTCCTCTTGAGGG, for which the remaining target (mRNA or protein) (fraction of control) stood at 0.69. On to CAGCATCTCTCTGTAGGGAG, for which the remaining target (mRNA or protein) (fraction of control) was determined as 0.81. Sequence GATGTCAATGTCACAGTCCA showed a remaining target (mRNA or protein) (fraction of control) of 0.73. Same read-out and setting: the figure for GAAACCACCCACGGGACAGC is at least 1; for TGGTGCCGTCGCGGTCCTGC it is 0.29; for TCAGAGTCGCAAACTTCTCC it is at least 1. Still for that read-out and setting: the same measure for GCCACGCCATCTGCCAGAAG: 0.7; for GCCTGGGCCAGCCTTGGGCT: at least 1. On to CCACCCACGGGACAGCATCT, for which the remaining target (mRNA or protein) (fraction of control) was at least 1. The same measure, in the same setting: the figure for CGCATTTGTTCCGGCCTTTC is 0.69; for CCACCTGAGGACAGCACCGC it is 0.84.

For GGCCTGGCTGGGCTATATAC, the remaining target (mRNA or protein) (fraction of control) was at least 1. AGCAGGGTCTCTGCATCCAG: the remaining target (mRNA or protein) (fraction of control) is at least 1.

The sequence TGAGTCTGTCCATCGCGAAA registered a remaining target (mRNA or protein) (fraction of control) of 0.63.

For GACAGCATCTCTCTGTAGGG, the remaining target (mRNA or protein) (fraction of control) came to 0.78. Same read-out and setting: the same measure for CTCTTGAGGGAACCCTTGCT: 0.49.

For CCACGGGACAGCATCTCTCT, the remaining target (mRNA or protein) (fraction of control) was at least 1. AACCACCCACGGGACAGCAT returned a remaining target (mRNA or protein) (fraction of control) of 0.47.

Take GCATCTCTCTGTAGGGAGGG: the remaining target (mRNA or protein) (fraction of control) was determined as 0.96.

ATGTGGCCATGGTACCACCT returned a remaining target (mRNA or protein) (fraction of control) of at least 1.

Turning to CAAACTCTCAAACTCCTCCC, the remaining target (mRNA or protein) (fraction of control) was 0.88. The same measure, in the same setting: the figure for GGGAGAATGTTCTTGTAGCG is at least 1; for GAGGACAGCACCGCTCACTT it is 0.88. With TCATGCTCCCCGCAGTTGGT, the remaining target (mRNA or protein) (fraction of control) worked out at 0.4.

For another data set, the target named is XIAP. The conditions noted are these: ASO.
Turning to CATCTTCTCTTGAAAATAGG, the remaining target (mRNA or protein) (fraction of control) came out at 0.9.

For the sequence ATTTATAGTTGCTCCCAGAT, the remaining target (mRNA or protein) (fraction of control) was found to be 0.58. On the same count and under the same terms, the same measure for ATTTGTTAAGCCTATCTGAA: 0.66; for CCAGGCACGATCACAAGGTT: at least 1; for ACTGTTAAAAGTCATCTTCT: 0.87. Sequence GTCATCTTCTCTTGAAAATA had a remaining target (mRNA or protein) (fraction of control) of 0.72. The same measure, in the same setting: the figure for AGAAAATGGACAGAATCCTA is 0.74; for TAGAGTCCAGCACTTGCTAA it is 0.4. The sequence TTCAAAACTGTTAAAAGTCA displayed a remaining target (mRNA or protein) (fraction of control) of at least 1. Same read-out and setting: the figure for TCTTCTCTTGAAAATAGGAC is 0.96. Same read-out and setting: the same measure for GATGTCTGCAGGTACACAAG: 0.56; for CACTCCTCAAGTGAATGAGT: 0.52. The same measure, in the same setting: the figure for TAGCAAAAGTTTTTAATCTA is 0.99; for CTATCATTAAATACGCTTTC it is 0.99; for GGTTAGGTTACTGATGTTAG it is at least 1. Consider TATGATGCTTCTTATTCTTA, for which the remaining target (mRNA or protein) (fraction of control) was 0.65. TTGTACTGACCATTCTGGAT had a remaining target (mRNA or protein) (fraction of control) of 0.47. TTAAAAGTCATCTTCTCTTG had a remaining target (mRNA or protein) (fraction of control) of at least 1. Regarding AGCATGTTGTTCCCAAGGGT, the remaining target (mRNA or protein) (fraction of control) was 0.54.

In turn, TGTTAAAAGTCATCTTCTCT yielded a remaining target (mRNA or protein) (fraction of control) of 0.84.

Consider TAGGACTTGTCCACCTTTTC, for which the remaining target (mRNA or protein) (fraction of control) worked out at 0.58. On the same count and under the same terms, the same measure for ATTCGTATAGCTTCTTGTAC: 0.61. AAGTCATCTTCTCTTGAAAA yielded a remaining target (mRNA or protein) (fraction of control) of 0.6.

In the case of TCTGCATGTGTCTCAGATGG, the remaining target (mRNA or protein) (fraction of control) came to 0.42. As for TGACTAGATGTCCACAAGGA, the remaining target (mRNA or protein) (fraction of control) amounted to 0.61. Turning to AAACTGTTAAAAGTCATCTT, the remaining target (mRNA or protein) (fraction of control) is 0.81. Still for that read-out and setting: the same measure for TATTAACAACATACATACTT: at least 1; for ACAATACATGGCAGGGTTCC: 0.41. The same measure, in the same setting: the same measure for TGCTCTTCAGTACTAATCTC: 0.58; for TCCTTGTTAACTGAGTATAT: 0.69; for TAATGGAATTCAATCCTGAT: 0.83. Consider CAAAACTGTTAAAAGTCATC, for which the remaining target (mRNA or protein) (fraction of control) was at least 1.

In turn, AAAAGTCATCTTCTCTTGAA came in with a remaining target (mRNA or protein) (fraction of control) of 0.58. CAACTAAAACACTGCCATGT yielded a remaining target (mRNA or protein) (fraction of control) of 0.54. Consider TCCACCAGCATGGAACAATT, for which the remaining target (mRNA or protein) (fraction of control) was determined as 0.71. On the same count and under the same terms, the same measure for GAAATTCCTATCAGAACTCA: 0.76; for TGCCTACTATAGAGTTAGAT: 0.6. The same measure, in the same setting: the figure for GCATGACAACTAAAGCACCG is 0.56; for TTGAAAATAGGACTTGTCCA it is 0.93. On to AATCTGCAATTTGGGGATAC, for which the remaining target (mRNA or protein) (fraction of control) turned out to be 0.93.

For another data set, the target named is MAP3K5. The conditions noted are these: ASO.
As for CTCCCAGTTCATAAAATGGG, the remaining target (mRNA or protein) (fraction of control) came to 0.85. The same measure, in the same setting: the same measure for CTCATCTCTCCGGGCCGGGC: 0.3. Same read-out and setting: the figure for TCCGCCTCCGTGCTCATCTC is 0.12. On the same count and under the same terms, the same measure for AGTAAACAAATACTGGATTT: 0.77; for ATGTCATTGAGTATAGATTC: 0.69; for TCCGTGCTCATCTCTCCGGG: 0.17. In the case of AGGGTTTCCAGGGTGGCGCC, the remaining target (mRNA or protein) (fraction of control) is 0.52. On the same count and under the same terms, the same measure for AAGAAGATCAGCTCTGTATT: 0.49; for CAAATTTAGAAATACTCACT: 0.85; for CGCCTCCGTGCTCATCTCTC: 0.1. As for GAAGCCGGGTGAGCGGGAAG, the remaining target (mRNA or protein) (fraction of control) is 0.34. Same read-out and setting: the same measure for CATCTCTCCGGGCCGGGCAG: 0.61; for TGCTCATCTCTCCGGGCCGG: 0.4; for TTCGTCCGCCTCCGTGCTCA: 0.18. Same read-out and setting: the same measure for CACTGCTCGAGGAGGTGGCC: 0.47; for CCGAATTCCCTTGACATCTC: 0.62; for CAGCTCAAGGGCGCCGCGCT: 0.59.

In turn, TGTCAACCCCTTCATGAAGC displayed a remaining target (mRNA or protein) (fraction of control) of 0.19.
